Like-named read-outs stand apart in the source and are kept apart here.
Assays:
[1] = biological target: T1, Purified recombinant matriptase (Homo sapiens, UniProt Q9Y5Y6); assay: Matriptase fluorescence-based enzymatic assay (Boc-Gln-Ala-Arg-AMC cleavage); type: biochemical
T1 sequence (Q9Y5Y6 1-855): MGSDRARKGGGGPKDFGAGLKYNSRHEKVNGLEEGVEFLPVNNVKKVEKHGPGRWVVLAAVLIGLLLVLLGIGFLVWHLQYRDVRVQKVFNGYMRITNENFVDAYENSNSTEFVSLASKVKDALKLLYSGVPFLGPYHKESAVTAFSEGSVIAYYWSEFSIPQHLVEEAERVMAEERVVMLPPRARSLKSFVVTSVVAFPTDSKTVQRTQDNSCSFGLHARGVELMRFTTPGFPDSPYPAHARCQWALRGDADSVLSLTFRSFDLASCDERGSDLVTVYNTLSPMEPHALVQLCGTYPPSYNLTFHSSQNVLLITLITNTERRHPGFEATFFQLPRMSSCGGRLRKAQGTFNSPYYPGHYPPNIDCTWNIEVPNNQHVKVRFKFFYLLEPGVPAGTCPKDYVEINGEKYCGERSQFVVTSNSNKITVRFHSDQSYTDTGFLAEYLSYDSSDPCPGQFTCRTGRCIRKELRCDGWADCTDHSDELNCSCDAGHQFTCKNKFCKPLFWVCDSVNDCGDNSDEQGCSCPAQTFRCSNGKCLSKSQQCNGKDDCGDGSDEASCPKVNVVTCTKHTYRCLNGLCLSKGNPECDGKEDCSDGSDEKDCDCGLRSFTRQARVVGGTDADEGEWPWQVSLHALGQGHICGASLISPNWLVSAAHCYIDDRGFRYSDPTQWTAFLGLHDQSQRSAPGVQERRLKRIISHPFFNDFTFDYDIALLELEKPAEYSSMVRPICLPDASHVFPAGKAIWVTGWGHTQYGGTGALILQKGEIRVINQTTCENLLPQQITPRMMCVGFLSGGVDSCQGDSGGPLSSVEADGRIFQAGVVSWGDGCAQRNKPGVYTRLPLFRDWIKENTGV
Text: (§1) Purified recombinant matriptase was used in a fluorescence-based screening assay using Gln-Ala-Arg peptide as a substrate. In this assay the cleavage of AMC from Boc-Gln-Ala-Arg-7-amido-4 methylcoumarin hydrochloride (Boc-Gln-Ala-Arg-AMC) (Sigma, USA) was monitored by measuring the increase in fluorescence intensity of AMC released upon proteolytic cleavage at 480 nm (kex=360 nm). Similarly, enzymatic assays in fluorimetric or colorimetric format for uPA, Factor Xa, thrombin, plasmin and trypsin (Sigma, USA) were established using substrates pyroGlu-Gly-Arg-pNA.HCl, Boc-Gln-Ala-Arg-AMC, CH3OCO-D-CHA-Gly-Arg-PNA.AcoH, Pyro Glu-Phe-Lys—pNA.HCl and Boc-Gln-Ala-Arg-AMC, respectively.

uPA = biological target: T2, uPA (Homo sapiens, UniProt P00749); assay: uPA enzymatic assay (selectivity screening); type: biochemical
T2 construct: purchased Sigma, USA
Text: as §1

Factor Xa = biological target: T3, Factor Xa (Homo sapiens, UniProt P00742); assay: Factor Xa enzymatic assay (selectivity screening); type: biochemical
T3 construct: uPA, Factor Xa, thrombin, plasmin and trypsin (Sigma, USA); purchased Sigma, USA
T3 sequence (P00742 235-488 limits assumed): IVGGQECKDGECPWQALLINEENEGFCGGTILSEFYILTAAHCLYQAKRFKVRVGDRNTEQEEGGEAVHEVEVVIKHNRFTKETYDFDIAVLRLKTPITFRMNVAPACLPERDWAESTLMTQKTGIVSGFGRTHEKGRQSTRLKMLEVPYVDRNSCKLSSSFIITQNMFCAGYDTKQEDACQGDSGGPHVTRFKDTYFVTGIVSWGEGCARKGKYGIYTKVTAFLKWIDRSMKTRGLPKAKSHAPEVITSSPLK
T3 sequence (P00742 41-179 partner limits assumed): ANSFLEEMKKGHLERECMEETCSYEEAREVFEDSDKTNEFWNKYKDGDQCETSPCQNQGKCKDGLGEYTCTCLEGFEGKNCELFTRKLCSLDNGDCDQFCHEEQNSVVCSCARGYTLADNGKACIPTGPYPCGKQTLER
Text: as §1

thrombin = biological target: T4, thrombin (Homo sapiens, UniProt P00734); assay: Thrombin enzymatic assay (selectivity screening); type: biochemical
T4 construct: uPA, Factor Xa, thrombin, plasmin and trypsin (Sigma, USA); purchased Sigma, USA
Text: as §1

plasmin = biological target: T5, plasmin (Homo sapiens, UniProt P00747); assay: Plasmin enzymatic assay (selectivity screening); type: biochemical
T5 construct: uPA, Factor Xa, thrombin, plasmin and trypsin (Sigma, USA); purchased Sigma, USA
T5 sequence (P00747 581-810 limits assumed, species assumed): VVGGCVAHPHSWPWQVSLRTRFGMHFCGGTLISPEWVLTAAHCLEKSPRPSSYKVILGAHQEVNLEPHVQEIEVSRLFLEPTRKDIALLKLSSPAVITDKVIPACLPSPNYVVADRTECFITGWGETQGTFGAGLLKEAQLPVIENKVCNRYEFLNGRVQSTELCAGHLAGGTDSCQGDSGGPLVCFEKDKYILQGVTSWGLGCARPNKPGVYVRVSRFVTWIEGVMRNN
T5 sequence (P00747 97-580 partner limits assumed, species assumed): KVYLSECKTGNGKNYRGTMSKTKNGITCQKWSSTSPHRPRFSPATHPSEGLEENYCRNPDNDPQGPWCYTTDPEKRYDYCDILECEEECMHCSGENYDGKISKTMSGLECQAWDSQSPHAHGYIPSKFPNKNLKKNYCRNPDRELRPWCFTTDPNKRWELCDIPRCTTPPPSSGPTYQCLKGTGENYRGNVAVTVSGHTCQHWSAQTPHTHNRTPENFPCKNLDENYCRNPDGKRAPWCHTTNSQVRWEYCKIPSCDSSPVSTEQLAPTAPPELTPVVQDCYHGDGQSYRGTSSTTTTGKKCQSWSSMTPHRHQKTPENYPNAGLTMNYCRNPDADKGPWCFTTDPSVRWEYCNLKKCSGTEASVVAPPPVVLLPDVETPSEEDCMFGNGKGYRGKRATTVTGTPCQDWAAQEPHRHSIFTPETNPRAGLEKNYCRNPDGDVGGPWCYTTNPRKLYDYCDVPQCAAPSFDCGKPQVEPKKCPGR
Text: as §1

trypsin = assay: Trypsin enzymatic assay (selectivity screening); type: biochemical; details: % Inhibition at 5 μM
Text: as §1

DU145 cells [2] = assay: Cytotoxicity, Calcein AM assay, DU145; type: cell-based; details: Homo sapiens, DU-145, 96 h, four days of incubation, read-out: Cell survival at 10 μM (%)
Description: Cytotoxicity of the compounds was tested in cell lines or primary cells using Calcein AM assay. This assay measures cell viability by quantitation of cleaved fluorescent product of a cell permeable substrate that is retained in the cytoplasm of cells with uncompromised cytoplasmic membrane integrity. The cells were seeded into 96-well plate and allowed to adhere for a day followed by addition of compound at several different concentrations. After four days of incubation with the compound, media was removed from the cells followed by addition of PBS and addition of Calcein AM reagent at 1 μM final concentration. The cells were then allowed to incubate at 37° C. for half an hour followed by reading on the fluorimeter. Percent viability was calculated based on fluorescence value obtained at 485/520 nm with cut off at 495 nm.

DU145 cells [3] = assay: Migration assay in transwell chambers; type: cell-based; details: Homo sapiens, DU-145, 24 hours
Description: Migration assays were performed to determine the effect of matriptase inhibitors on cell motility. Cells were seeded with 10 μM test compound into transwell chambers and allowed to migrate for 24 hours using a combination of 10% FBS and 5 μg/ml fibronectin as chemoattractant.

DU145 cells [4] = assay: Cell invasion assay (matrigel transwell); type: cell-based; details: Homo sapiens, DU-145, 48 hours
Description: Cell invasion assays were done for quantitating the degree to which invasive cells penetrate a barrier essentially as in migration assay but with the use of matrigel consisting of basement membrane components in the transwell inserts and incubating for 48 hours. The barrier used was matrigel. This was followed by fixing and staining of the transwell insert with 0.5% crystal violet in 25% methanol in order to visualize cells migrated.

DU145 cells [5] = assay: Soft agar colony formation assay; type: cell-based; details: Homo sapiens, DU-145, 504 h, about three weeks, read-out: EC50 for inhibition of soft agar colony formation
Description: Soft agar colony formation assays were performed to measure the long-term survival and anchorage-independent growth capacity of tumor cells. DU145 cells were seeded in 0.7% nutrient agar with the test compound on an underlay of 1.4% nutrient agar in a six well plate. On the day following cell seeding, liquid cell culture medium containing the compound was added to the well to prevent the agar from drying out and was changed regularly till the completion of the experiment. The cells were allowed to form colonies for a period of about three weeks following which the colonies were stained with 0.005% solution of crystal violet in 25% methanol. The colonies were counted under a dissecting microscope.

DU145 tumors = assay: DU145 xenograft model; type: in vivo; details: for Tumor growth inhibition (%): DU145 model, 15 days
Description: (§2) In order to determine the in vivo efficacy, xenograft models were established by injecting 5×10^6 DU145 cells with matrigel or 5×10^6 PC3 cells without matrigel subcutaneously. Once the tumors reached palpable size (˜80 mm3), compound of Example 27 was administered in a vehicle comprising of 2% ethanol, 10% hydroxyl cyclodextrin in 0.9% saline. The compound of Example 27 was dosed subcutaneously to animals with DU145 tumors at 1.5, 5 and 15 mg/kg for 15 days. In the PC3 xenograft study, compound of Example 27 was administered at 0.5, 1.5, 5.0 and 15.0 mg/kg daily.

PC3 cells = assay: PC3 xenograft model; type: in vivo; details: for Tumor growth inhibition (%): PC3 model, 21 days
Description: as §2

[6] = Maximum tolerated dose (MTD) study; type: in vivo; details: 14 days, male athymic mice
Description: An MTD study was performed for the compound of Example 27. […] The compound was administered at 1, 3, 10 and 30 mg/kg once daily in male athymic mice via subcutaneous route in 5 mice each. […]

[7] = 1, 3, 10 and 30 mg/kg once daily subcutaneous

[H]/N=C(\N)c1ccc(Oc2cc(Oc3ccc(/C(N)=N/[H])cc3)cc(C(=O)NC3CCC(N)CC3)c2)cc1 (stereo not drawn) [Example 27, N-(4-Amino-cyclohexyl)-3,5-bis-(4-carbamimidoyl-phenoxy)-benzamide]
IC50 ([1]; Table 1, read-out: Matriptase Inhibition IC50): 0.017 µM | IC50 ([1]; Table 2, read-out: Matriptase IC50): 0.017 µM | inhibition at 5 µM (uPA): 14% | inhibition at 5 µM (Factor Xa): 83% | inhibition at 5 µM (thrombin): 41% | inhibition at 5 µM (plasmin): 33% | Trypsin Inhibition (%) (trypsin): 61% | viability at 10 µM (DU145 cells [2]): 100% | inhibition at 10 µM (DU145 cells [3]): 88% | inhibition at 10 µM (DU145 cells [4]): 79% | EC50 (DU145 cells [5]): 0.2 µM | Tumor growth inhibition (%) (DU145 tumors; 1.5 mg/kg subcutaneously): 61.2% | Tumor growth inhibition (%) (DU145 tumors; 5 mg/kg subcutaneously): 84.5% | Tumor growth inhibition (%) (DU145 tumors; 15 mg/kg subcutaneously): 75% | Reduction in tumor volume (in words) (DU145 tumors; DU145 xenograft study): significant reduction in tumor volume | Tumor growth inhibition (%) (PC3 cells; 0.5 mg/kg daily): 14% | Tumor growth inhibition (%) (PC3 cells; 1.5 mg/kg daily): 44% | Tumor growth inhibition (%) (PC3 cells; 5 mg/kg daily): 65% | Tumor growth inhibition (%) (PC3 cells; 15 mg/kg daily): 62% | Inhibition of tumor growth (in words) (PC3 cells; PC3 xenograft study): significant and dose-dependent inhibition of tumor growth | Body weight reduction [6, 7]: less than 2% | Clinical signs [6, 7]: no gross changes in clinical signs | Mortality [6, 7]: did not show any mortality | Tolerability ([6]; doses up to 30 mg/kg once daily subcutaneous): well tolerated

— patent publication US8722930B2, “Protease inhibitors” (Orion Corporation, priority 2009, dated 2014)
